Test [1] concerns Influenza A (H1N1) 2009. The note with it: in vivo.
The subject of test [2] is Influenza A (H1N1) 2009. The conditions noted are these: in vivo. This is another data set of the same source.

Each structure is given as a SMILES string. Several values for one entry are separate records, joined by “and”; a condition that tells them apart may be missing. Equal entries are not always repeated.

For the compound `CCOC(=O)C1=C[C@@H](OC(CC)CC)[C@H](NC(C)=O)[C@@H](N)C1` [Oseltamivir, oseltamivir], in the test on Influenza A (H1N1) 2009 [1], the “fever settled, day of illness” value worked out at 5 and the “outcome of close contacts given oseltamivir prophylaxis” value is listed as “remained well”. In the test with Influenza A (H1N1) 2009 [2], the RT-PCR entry is given as “positive”; the ct value was 24 and 32 and 35.

The record behind these values is patent publication US20120308993A1 (priority 2009, published 2012).
